Entries after “also recorded” stand apart in the source; their conditions may differ.
Assays:
Assay type in all cases: cell-based, mouse
[1] = tested on: ESC-1 cells; test: qRT-PCR gene expression of ICM and germline-associated genes; conditions: for expression of ICM and germline-associated genes: ESC-1 cells, three days
Procedure: qRT-PCR. RNA was isolated using the RNeasy kit (Qiagen). After DNase treatment, 1-2 μg RNA was used for cDNA synthesis using the First-Strand Synthesis kit (Invitrogen). Quantitative RT-PCR analysis was performed in biological triplicate using an ABI Prism 7000 (Applied Biosystems) with Platinum SYBR green.

[2] = tested on: ESC-1 cells; test: Colony formation (self-renewal) assay with alkaline phosphatase staining; conditions: S/L medium, 4 mM, four days; for number of undifferentiated colonies: compared to S/L and the other treatment
Procedure: Self-renewal assays. ES cells free of feeder MEFs were plated at 100 cells per well in 6-well plates coated with 20 μg/mL mouse laminin (Stemgent 06-0002) in maintenance S/L medium. The following day media was changed to S/L experimental medium containing dimethyl-α-ketoglutarate (4 mM, Sigma 349631), dimethyl-succinate (4 mM, Sigma W239607) or DMSO vehicle control. Four days later cells were washed with PBS and stained for alkaline phosphatase using Vector Red Alkaline Phosphatase Kit (Vector Labs) according to manufacturer's instructions.

[3] = tested on: ESC-1 cells; test: GC-MS metabolite profiling, αKG:succinate ratio; conditions: 1 μM or 5 μM, 3 hours; for αKG:succinate ratio: S/L or 2i/L medium
Procedure: Metabolite profiling. For all metabolite experiments, cells were seeded in their standard culture medium in 6-well plates and the next day were changed into experimental medium. Medium was changed again at the indicated time before harvest (usually 1-24 hours). Metabolites were extracted with 1 mL ice-cold 80% methanol supplemented with 20 μM deuterated 2-hydroxyglutarate (D-2-hydroxyglutaric-2,3,3,4,4-d5 acid, d5-2HG) as an internal standard. After overnight incubation at −80° C., lysates were harvested and centrifuged at 21,000 g for 20 minutes to remove protein. Extracts were dried in an evaporator (Genevac EZ-2 Elite) and resuspended by incubation at 30° C. for 2 hours in 50 μL of 40 mg/mL methoxyamine hydrochloride in pyridine. Metabolites were further derivatized by addition of 80 μL of MSTFA +1% TCMS (Thermo Scientific) and 70 μl ethyl acetate (Sigma) and incubated at 37° C. for 30 minutes. Samples were analyzed using an Agilent 7890A GC coupled to Agilent 5975C mass selective detector. […] Peaks representing compounds of interest were extracted and integrated using MassHunter software (Agilent Technologies) and then normalized to both the internal standard (d5-2HG) peak area and protein content of duplicate samples as determined by BCA protein assay (Thermo Scientific). Ions used for quantification of metabolite levels are as follows: d5-2HG m/z 354; KG, m/z 304; aspartate, m/z 334; citrate, m/z 465; glutamate, m/z 363; malate, m/z 335 and succinate, m/z 247. […] Enrichment of ^13C was assessed by quantifying the abundance of the following ions: αKG, m/z 304-315; aspartate, m/z 334-346; citrate, m/z 465-482; glutamate, m/z 363-377 and malate, m/z 335-347. […] Flux was calculated as the product of the first order rate constant of the kinetic labeling curve and relative metabolite pool size (normalized to mean S/L values for each experiment)^5. The flux from glucose- and glutamine-derived carbons was calculated for each of three independent experiments and the average total flux for each metabolite was shown.

[4] = tested on: ESC-1 cells; test: Western blot of histone methylation in glutamine-free media with DM-αKG supplementation; conditions: glutamine-free S/L or 2i/L media, 24 hours
Procedure: (§1) Cell culture. Maintenance media for ES cells were as follows: serum/LIF (S/L) maintenance medium contained Knockout DMEM (Gibco) supplemented with 15% ESC-qualified FBS (Gemini), penicillin/streptomycin (Life Technologies), 0.1 mM 2-mercaptoethanol, L-glutamine (2 mM, Life Technologies) and leukemia inhibitory factor (LIF) plated onto irradiated feeder mouse embryonic fibroblasts (MEFs); 2i/LIF maintenance conditions used a base medium made from a 1:1 mix of DMEM/F12 (Life Technologies 11302-033) and Neurobasal (Life Technologies 21103-049) containing N2 and B27 supplements (Life Technologies 17502-048 and 17504-044, 1:100 dilutions), penicillin/streptromycin, 0.1 mM 2-mercaptoethanol, L-glutamine (2 mM), LIF, CHIR99021 at 3 μM (Stemgent) and PD0325901 at 1 μM (Stemgent). Experimental media utilized for all experiments (except growth curves with and without glucose, ^13C isotope tracing experiments and ^14C labeling experiments) contained 1:1 mix of glutamine-free DMEM (Life Technologies 11960-051) and Neurobasal (Life Technologies 21103-049) with or without 2 mM glutamine. With the exception of 15% dialyzed FBS (Gemini 100-108) in S/L experimental medium, all other supplements were equivalent to maintenance media (S/L or 2i/L). […]

[5] = tested on: ESC-1 cells; test: DNA methylation quantification (% 5mC); conditions: S/L medium, 24 hours
Procedure: DNA methylation. Genomic DNA was extracted from ESC samples using Puregene Core Kit A (Sigma). DNA methylation was measured using the colorimetric MethylFlash Methylated DNA quantification kit (Epigentek) according to manufacturer instructions.

[6] = tested on: ESC-V19 cells; test: Growth curves in glutamine-free medium; conditions: glutamine-free S/L or 2i/L media, 4 mM DM-αKG
Procedure: as §1
Growth curves. […] Cells were counted each day using a Beckman Coulter Multisizer 4.

[7] = tested on: Nanog-GFP ESCs; test: Nanog-GFP reporter FACS; conditions: S/L medium, three days
Procedure: FACS. Nanog-GFP ESCs^8 were cultured in S/L experimental medium for three passages and 2.5×10^4 cells were plated into a 6-well plate. Twenty-four hours later media was changed to S/L medium containing vehicle control or DM-AKG. Media was subsequently changed 48 hours later and cells harvested the following day. FACS analysis was performed at The Rockefeller University Flow Cytometry Resource Center using a BD LSR II. Data was generated using FlowJo. Analysis was performed on biological triplicates.

[8] = tested on: UTX/Jmjd3; test: H3K27me3 ChIP-PCR at bivalent domain promoters; conditions: 30 μM, five hours
Procedure: Chromatin immunoprecipitation. Native ChIP assays (histones) were performed with approximately 6×10^6 ESCs per experiment. Cells were subject to hypotonic lysis and treated with micrococcal nuclease to recover mono- to tri-nucleosomes. Nuclei were lysed by brief sonication and dialyzed into N-ChIP buffer (10 mM Tris pH 7.6, 1 mM EDTA, 0.1% SDS, 0.1% Na-Deoxycholate, 1% Triton X-100) for 2 hr at 4° C. Soluble material was incubated overnight at 4° C. following addition of 3-5 μg of antibody bound to 75 μL protein A Dynal magnetic beads (Invitrogen), with 5% kept as input DNA. Magnetic beads were washed, chromatin was eluted, and ChIP DNA was dissolved in 10 mM Tris pH 8 for quantitative PCR reactions (see below).
ChIP-qPCR. Primers are listed below. All qPCR was performed using an Applied Biosystems StepOnePlus system and Power SYBR Green PCR master mix. ChIP samples were diluted 1:100 in H2O and 5 μL used per reaction. ChIP-qPCR signals were calculated as percent input.

[9] = tested on: UTX and Jmjd3; test: Western blot of H3K27 methylation after GSK-J4 treatment; conditions: ESC-1 cells in S/L, increasing amounts of GSK-J4, 24 hours
Procedure: as §1

With `COC(=O)CCC(=O)OC` [DM-succinate, dimethyl-succinate] the “expression of ICM and germline-associated genes” value [1] was “not”, the predominant colony types [2] was “either mixed or differentiated” and the “number of undifferentiated colonies” value [2] was “reproducible trend of fewer undifferentiated and more differentiated colonies”.
`CCOC(=O)CCNc1cc(N2CCc3ccccc3CC2)nc(-c2cccnc2)n1` [GSK-J5] was tested, and the “αKG:succinate ratio” value [3] was “had no effect”.
With `COC(=O)CCC(=O)C(=O)OC` [DM-αKG, dimethyl-α-ketoglutarate] the “H3K27me3 and H4K20me3 levels (Western blot)” value [4] was “reversed the increase in H3K27me3 and H4K20me3”, the “effects on gene expression in Tet1/Tet2 double knockout ES cells” value ([1]; 72 hours) was “largely abrogated in Tet1/Tet2 double knockout ES cells” and the “expression of ICM and germline-associated genes” value [1] was “induced expression of ICM and germline-associated genes”. For the same compound, the “effects on gene expression upon extended passaging” value ([1]; S/L medium, 24 hours or four passages) was “persisted upon extended passaging”, the “total DNA methylation (% 5mC)” value [5] was “reduced” and the glutamine-independent proliferation [6] was “sufficient to enable glutamine-independent proliferation in both S/L and 2i/L conditions”. The “colony staining and morphology (brightfield images)” value [2] was “stained brighter and retained a more compact colony morphology”, the “number of undifferentiated colonies” value [2] was “more than double the number of fully undifferentiated colonies; also recorded: more undifferentiated colonies than vehicle or DM-succinate treated wells” and the “Nanog expression detected by GFP fluorescence” value [7] was “sufficient to enhance Nanog expression in a dose-dependent manner”.
`CCOC(=O)CCNc1cc(N2CCc3ccccc3CC2)nc(-c2ccccn2)n1` [GSK-J4] was tested, and the “H3K27me3 at bivalent domain promoters” value ([8]; ESC-1 cells in 2i/L medium) was “consistent increase in H3K27me3 at bivalent domain promoters”, the “H3K27me3 at bivalent domain promoters” value ([8]; ESC-1 cells in S/L medium) was “did not change” and the “H3K27me1 level (Western blot)” value [9] was “concomitant reduction of H3K27me1”. For the same compound, the “H3K27me3 level (Western blot)” value [9] was “dose-dependent increase in H3K27me3”, the “absolute and relative increase in the αKG:succinate ratio, 2i/L compared with S/L” value [3] was “more pronounced in the cells grown in 2i/L medium” and the “αKG:succinate ratio” value [3] was “triggered increases in the αKG:succinate ratio”.

Reference: patent US11203739B2, “Modulating cell proliferation and pluripotency” (Memorial Sloan Kettering Cancer Center, priority 2014, dated 2021)
